This assay addresses T1, human TRPM5 ion channel (Homo sapiens, UniProt Q9NZQ8).
T1 sequence (Q9NZQ8 1-1165): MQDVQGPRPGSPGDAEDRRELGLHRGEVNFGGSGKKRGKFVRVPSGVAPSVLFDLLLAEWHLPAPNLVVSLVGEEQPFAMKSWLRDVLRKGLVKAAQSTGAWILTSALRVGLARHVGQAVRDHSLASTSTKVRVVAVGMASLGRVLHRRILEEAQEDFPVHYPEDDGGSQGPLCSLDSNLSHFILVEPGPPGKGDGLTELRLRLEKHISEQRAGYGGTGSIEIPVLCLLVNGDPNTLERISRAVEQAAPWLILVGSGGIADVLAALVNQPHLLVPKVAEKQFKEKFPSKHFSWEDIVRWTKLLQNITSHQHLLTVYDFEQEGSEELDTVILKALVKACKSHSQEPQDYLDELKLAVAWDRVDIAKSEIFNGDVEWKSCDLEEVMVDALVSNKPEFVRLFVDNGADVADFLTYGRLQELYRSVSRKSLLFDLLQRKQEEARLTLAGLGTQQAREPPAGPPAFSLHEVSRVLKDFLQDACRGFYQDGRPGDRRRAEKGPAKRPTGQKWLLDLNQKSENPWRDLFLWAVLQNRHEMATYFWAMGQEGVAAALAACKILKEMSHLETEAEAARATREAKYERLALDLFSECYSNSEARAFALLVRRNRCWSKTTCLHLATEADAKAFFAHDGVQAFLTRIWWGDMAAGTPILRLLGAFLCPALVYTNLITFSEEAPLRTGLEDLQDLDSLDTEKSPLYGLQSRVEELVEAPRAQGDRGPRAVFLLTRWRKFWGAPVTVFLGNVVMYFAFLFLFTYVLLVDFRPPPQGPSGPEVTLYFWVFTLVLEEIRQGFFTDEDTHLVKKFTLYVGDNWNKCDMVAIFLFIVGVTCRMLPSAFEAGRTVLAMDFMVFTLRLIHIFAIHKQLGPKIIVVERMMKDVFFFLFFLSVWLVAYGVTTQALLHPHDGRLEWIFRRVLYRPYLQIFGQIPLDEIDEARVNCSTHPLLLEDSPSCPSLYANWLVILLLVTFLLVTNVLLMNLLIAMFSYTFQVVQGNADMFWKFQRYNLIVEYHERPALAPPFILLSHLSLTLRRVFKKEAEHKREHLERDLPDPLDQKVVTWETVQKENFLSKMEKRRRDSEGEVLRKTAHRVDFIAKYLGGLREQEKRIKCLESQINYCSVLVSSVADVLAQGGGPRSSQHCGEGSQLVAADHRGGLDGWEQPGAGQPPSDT
As to the kind of experiment: FLIPR-based assay for membrane potential and calcium mobilization (TRPM5 inhibiting activity). It counts as cell-based. The note with it: live cells, 30° C., read-out: hTrpM5 IC50. How it is done:
The activity of compounds of the present invention on human TRPM5 ion channel was measured using the FLIPR-based (fluorescent imaging plate reader) assay for membrane potential and calcium mobilization described in U.S. Patent Application Publication No. 2008/0249189 A1 in live cells, wherein the assay is performed at 30° C. Determinations of affinity and efficacy were derived from measurements of TRPM5 activity over a range of compound concentrations. The concentration range was achieved by 10 serial dilutions (either 2-fold or 3-fold decrements) from a maximum concentration of no greater that 100 μM. Curver fitting was performed on the resulting data to yield concentration-effect functions, from which the half-maximal inhibitory concentration (IC50) was derived for all the tested compounds. The IC50 values were considered to be accurate reflections of affinity between the compounds and TRPM5.
Representative compounds of the present invention have been tested in the FLIPR assay for TRPM5 inhibiting activity, which is described in detail above.
With `Cc1cnc2ccc(/C=N/NC(=O)CCn3cc(C)c4ccccc43)cc2c1` [Example 61, 3-(3-methyl-1H-indol-1-yl)-N′-((3-methylquinolin-6-yl)methylene)-propanehydrazide], the IC50 turned out to be 0.21 µM.

`Cc1ccnc2ccc(/C=N/NC(=O)CCn3cc(C)c4ccccc43)cc12` [Example 62, 3-(3-methyl-1H-indol-1-yl)-N′-((4-methylquinolin-6-yl)methylene)-propanehydrazide]: the IC50 came to 0.37 µM.

`COc1ccnc2ccc(/C=N/NC(=O)CCn3cc(C)c4ccccc43)cc12` [Example 63, N′-((4-methoxyquinolin-6-yl)methylene)-3-(3-methyl-1H-indol-1-yl)propanehydrazide]: the IC50 is 0.12 µM.

Turning to `Cc1cc(/C=N/NC(=O)CCn2cc(C)c3c(C)cccc32)cc2cccnc12` [Example 64, 3-(3,4-dimethyl-1H-indol-1-yl)-N′-((8-methylquinolin-6-yl)-methylene)propanehydrazide], the IC50 worked out at 0.005 µM.

On to `COc1ccc(/C=N/NC(=O)NCCc2ccccc2)cc1OC` [Example 65, 2-(3,4-dimethoxybenzylidene)-N-phenethylhydrazinecarboxamide], for which the IC50 was found to be 0.2 µM.

Take `COc1ccc(/C=N/NC(=O)CSc2cccc(Cl)c2)cc1OC` [Example 66, 2-(3-chlorophenylthio)-N′-(3,4-dimethoxybenzylidene)acetohydrazide]: the IC50 amounted to 0.04 µM.

Turning to `COc1ccc(/C=N/NC(=O)CSc2cccc(CO)c2)cc1OC` [Example 67, N′-(3,4-dimethoxybenzylidene)-2-(3-(hydroxymethyl)phenylthio)-acetohydrazide], the concentration for half-maximal inhibition (IC50) is more than 30 µM.

Take `Cc1cn(CCC(=O)N/N=C/c2ccc3cccnc3c2)c2ccccc12` [Example 68, 3-(3-methyl-1H-indol-1-yl)-N′-(quinolin-7-ylmethylene)-propanehydrazide]: the IC50 is more than 30 µM.

Take `Cc1ccc2cc(/C=N/NC(=O)CCn3cc(C)c4ccccc43)ccc2n1` [Example 69, 3-(3-methyl-1H-indol-1-yl)-N′-((2-methylquinolin-6-yl)methylene)-propanehydrazide]: the IC50 is more than 30 µM.

The values above are taken from patent publication US20110033393A1, “Hydrazone Compounds and Their Use” (priority 2009, published 2011).
